Converted amounts (≈) assume the structure as drawn.
Legend:
Assay type in all cases: functional
Staphylococcus aureus [1] = experiment: Antibacterial activity against Staphylococcus aureus assessed as inhibition of bacterial growth incubated for 18 hrs by two fold broth microdilution assay
Staphylococcus aureus [2] = experiment: Antibacterial activity against methicilin-resistant Staphylococcus aureus N315 assessed as inhibition of bacterial growth incubated for 18 hrs by two fold broth microdilution assay
Pseudomonas aeruginosa [3] = experiment: Antibacterial activity against Pseudomonas aeruginosa assessed as inhibition of bacterial growth incubated for 18 hrs by two fold broth microdilution assay
Klebsiella pneumoniae = experiment: Antibacterial activity against Klebsiella pneumoniae assessed as inhibition of bacterial growth incubated for 18 hrs by two fold broth microdilution assay
Escherichia coli [4] = experiment: Antibacterial activity against Escherichia coli ATCC 25922 assessed as inhibition of bacterial growth incubated for 18 hrs by two fold broth microdilution assay
Acinetobacter baumannii = experiment: Antibacterial activity against Acinetobacter baumannii assessed as inhibition of bacterial growth incubated for 18 hrs by two fold broth microdilution assay
Staphylococcus aureus [5] = experiment: Antibacterial activity against Staphylococcus aureus ATCC 29213 assessed as inhibition of bacterial growth incubated for 18 hrs by two fold broth microdilution assay
Pseudomonas aeruginosa [6] = experiment: Antibacterial activity against Pseudomonas aeruginosa ATCC 27853 assessed as inhibition of bacterial growth incubated for 18 hrs by two fold broth microdilution assay
Staphylococcus aureus [7] = experiment: Antibacterial activity against Staphylococcus aureus ATCC 25923 assessed as inhibition of bacterial growth incubated for 18 hrs by two fold broth microdilution assay
Escherichia coli [8] = experiment: Antibacterial activity against Escherichia coli assessed as inhibition of bacterial growth incubated for 18 hrs by two fold broth microdilution assay
Enterococcus faecalis = experiment: Antibacterial activity against Enterococcus faecalis assessed as inhibition of bacterial growth incubated for 18 hrs by two fold broth microdilution assay

## CC(=O)Nc1ccc(S(=O)(=O)/C(C#N)=C/c2cn(C)c3ccccc23)cc1
Staphylococcus aureus [1]
  MIC: 128 µg/mL (≈ 337 µM)
Staphylococcus aureus [2]
  MIC: 16 µg/mL (≈ 42.2 µM)
Pseudomonas aeruginosa [3]
  MIC: 32 µg/mL (≈ 84.3 µM)
Klebsiella pneumoniae
  MIC: 128 µg/mL (≈ 337 µM)
Escherichia coli [4]
  MIC: 0.5 µg/mL (≈ 1.32 µM)
Acinetobacter baumannii
  MIC: 0.5 µg/mL (≈ 1.32 µM)
Staphylococcus aureus [5]
  MIC: 128 µg/mL (≈ 337 µM)
Pseudomonas aeruginosa [6]
  MIC: 64 µg/mL (≈ 169 µM)
Staphylococcus aureus [7]
  MIC: 8 µg/mL (≈ 21.1 µM)
Escherichia coli [8]
  MIC: 16 µg/mL (≈ 42.2 µM)
Enterococcus faecalis
  MIC: 128 µg/mL (≈ 337 µM)

## CC(=O)Nc1ccc(S(=O)(=O)/C(C#N)=C/c2cn(CCO)c3ccccc23)cc1
Staphylococcus aureus [1]
  MIC: 2 µg/mL (≈ 4.88 µM)
Staphylococcus aureus [2]
  MIC: 32 µg/mL (≈ 78.2 µM)
Pseudomonas aeruginosa [3]
  MIC: 4 µg/mL (≈ 9.77 µM)
Klebsiella pneumoniae
  MIC: 2 µg/mL (≈ 4.88 µM)
Escherichia coli [4]
  MIC: 1 µg/mL (≈ 2.44 µM)
Acinetobacter baumannii
  MIC: 32 µg/mL (≈ 78.2 µM)
Staphylococcus aureus [5]
  MIC: 2 µg/mL (≈ 4.88 µM)
Pseudomonas aeruginosa [6]
  MIC: 8 µg/mL (≈ 19.5 µM)
Staphylococcus aureus [7]
  MIC: 2 µg/mL (≈ 4.88 µM)
Escherichia coli [8]
  MIC: 4 µg/mL (≈ 9.77 µM)
Enterococcus faecalis
  MIC: 4 µg/mL (≈ 9.77 µM)

## N#C/C(=C\c1cn(Cc2ccc(Cl)cc2Cl)c2ccccc12)S(=O)(=O)c1ccc(N)cc1
Staphylococcus aureus [1]
  MIC: 256 µg/mL (≈ 531 µM)
Staphylococcus aureus [2]
  MIC: 256 µg/mL (≈ 531 µM)
Pseudomonas aeruginosa [3]
  MIC: 64 µg/mL (≈ 133 µM)
Klebsiella pneumoniae
  MIC: 4 µg/mL (≈ 8.29 µM)
Escherichia coli [4]
  MIC: 64 µg/mL (≈ 133 µM)
Acinetobacter baumannii
  MIC: 16 µg/mL (≈ 33.2 µM)
Staphylococcus aureus [5]
  MIC: 64 µg/mL (≈ 133 µM)
Pseudomonas aeruginosa [6]
  MIC: 32 µg/mL (≈ 66.3 µM)
Staphylococcus aureus [7]
  MIC: 32 µg/mL (≈ 66.3 µM)
Escherichia coli [8]
  MIC: 256 µg/mL (≈ 531 µM)
Enterococcus faecalis
  MIC: 128 µg/mL (≈ 265 µM)

## CC(=O)Nc1ccc(S(=O)(=O)/C(C#N)=C/c2c[nH]c3cc(F)ccc23)cc1
Staphylococcus aureus [1]
  MIC: 32 µg/mL (≈ 83.5 µM)
Staphylococcus aureus [2]
  MIC: 64 µg/mL (≈ 167 µM)
Pseudomonas aeruginosa [3]
  MIC: 64 µg/mL (≈ 167 µM)
Klebsiella pneumoniae
  MIC: 128 µg/mL (≈ 334 µM)
Escherichia coli [4]
  MIC: 8 µg/mL (≈ 20.9 µM)
Acinetobacter baumannii
  MIC: 16 µg/mL (≈ 41.7 µM)
Staphylococcus aureus [5]
  MIC: 32 µg/mL (≈ 83.5 µM)
Pseudomonas aeruginosa [6]
  MIC: 8 µg/mL (≈ 20.9 µM)
Staphylococcus aureus [7]
  MIC: 128 µg/mL (≈ 334 µM)
Escherichia coli [8]
  MIC: 128 µg/mL (≈ 334 µM)
Enterococcus faecalis
  MIC: 32 µg/mL (≈ 83.5 µM)

## CCCCCCCCn1cc(/C=C(\C#N)S(=O)(=O)c2ccc(N)cc2)c2ccccc21
Staphylococcus aureus [1]
  MIC: 128 µg/mL (≈ 294 µM)
Staphylococcus aureus [2]
  MIC: 256 µg/mL (≈ 588 µM)
Pseudomonas aeruginosa [3]
  MIC: 64 µg/mL (≈ 147 µM)
Klebsiella pneumoniae
  MIC: 4 µg/mL (≈ 9.18 µM)
Escherichia coli [4]
  MIC: 64 µg/mL (≈ 147 µM)
Acinetobacter baumannii
  MIC: 32 µg/mL (≈ 73.5 µM)
Staphylococcus aureus [5]
  MIC: 16 µg/mL (≈ 36.7 µM)
Pseudomonas aeruginosa [6]
  MIC: 32 µg/mL (≈ 73.5 µM)
Staphylococcus aureus [7]
  MIC: 32 µg/mL (≈ 73.5 µM)
Escherichia coli [8]
  MIC: 128 µg/mL (≈ 294 µM)
Enterococcus faecalis
  MIC: 32 µg/mL (≈ 73.5 µM)

## CCCCn1cc(/C=C(\C#N)S(=O)(=O)c2ccc(NC(C)=O)cc2)c2ccccc21
Staphylococcus aureus [1]
  MIC: 2 µg/mL (≈ 4.74 µM)
Staphylococcus aureus [2]
  MIC: 256 µg/mL (≈ 607 µM)
Pseudomonas aeruginosa [3]
  MIC: 4 µg/mL (≈ 9.49 µM)
Klebsiella pneumoniae
  MIC: 8 µg/mL (≈ 19 µM)
Escherichia coli [4]
  MIC: 4 µg/mL (≈ 9.49 µM)
Acinetobacter baumannii
  MIC: 1 µg/mL (≈ 2.37 µM)
Staphylococcus aureus [5]
  MIC: 8 µg/mL (≈ 19 µM)
Pseudomonas aeruginosa [6]
  MIC: 8 µg/mL (≈ 19 µM)
Staphylococcus aureus [7]
  MIC: 1 µg/mL (≈ 2.37 µM)
Escherichia coli [8]
  MIC: 64 µg/mL (≈ 152 µM)
Enterococcus faecalis
  MIC: 4 µg/mL (≈ 9.49 µM)

## CCCCCCn1cc(/C=C(\C#N)S(=O)(=O)c2ccc(NC(C)=O)cc2)c2ccccc21
Staphylococcus aureus [1]
  MIC: 256 µg/mL (≈ 569 µM)
Staphylococcus aureus [2]
  MIC: 32 µg/mL (≈ 71.2 µM)
Pseudomonas aeruginosa [3]
  MIC: 4 µg/mL (≈ 8.9 µM)
Klebsiella pneumoniae
  MIC: 256 µg/mL (≈ 569 µM)
Escherichia coli [4]
  MIC: 8 µg/mL (≈ 17.8 µM)
Acinetobacter baumannii
  MIC: 8 µg/mL (≈ 17.8 µM)
Staphylococcus aureus [5]
  MIC: 1 µg/mL (≈ 2.22 µM)
Pseudomonas aeruginosa [6]
  MIC: 8 µg/mL (≈ 17.8 µM)
Staphylococcus aureus [7]
  MIC: 4 µg/mL (≈ 8.9 µM)
Escherichia coli [8]
  MIC: 8 µg/mL (≈ 17.8 µM)
Enterococcus faecalis
  MIC: 4 µg/mL (≈ 8.9 µM)

## N#C/C(=C\c1c[nH]c2cccc(Cl)c12)S(=O)(=O)c1ccc(N)cc1
Staphylococcus aureus [1]
  MIC: 32 µg/mL (≈ 89.4 µM)
Staphylococcus aureus [2]
  MIC: 64 µg/mL (≈ 179 µM)
Pseudomonas aeruginosa [3]
  MIC: 64 µg/mL (≈ 179 µM)
Klebsiella pneumoniae
  MIC: 4 µg/mL (≈ 11.2 µM)
Escherichia coli [4]
  MIC: 64 µg/mL (≈ 179 µM)
Acinetobacter baumannii
  MIC: 16 µg/mL (≈ 44.7 µM)
Staphylococcus aureus [5]
  MIC: 32 µg/mL (≈ 89.4 µM)
Pseudomonas aeruginosa [6]
  MIC: 64 µg/mL (≈ 179 µM)
Staphylococcus aureus [7]
  MIC: 128 µg/mL (≈ 358 µM)
Escherichia coli [8]
  MIC: 256 µg/mL (≈ 715 µM)
Enterococcus faecalis
  MIC: 32 µg/mL (≈ 89.4 µM)

## N#C/C(=C\c1cn(Cc2cccc(Cl)c2)c2ccccc12)S(=O)(=O)c1ccc(N)cc1
Staphylococcus aureus [1]
  MIC: 128 µg/mL (≈ 286 µM)
Staphylococcus aureus [2]
  MIC: 128 µg/mL (≈ 286 µM)
Pseudomonas aeruginosa [3]
  MIC: 64 µg/mL (≈ 143 µM)
Klebsiella pneumoniae
  MIC: 256 µg/mL (≈ 571 µM)
Escherichia coli [4]
  MIC: 32 µg/mL (≈ 71.4 µM)
Acinetobacter baumannii
  MIC: 32 µg/mL (≈ 71.4 µM)
Staphylococcus aureus [5]
  MIC: 32 µg/mL (≈ 71.4 µM)
Pseudomonas aeruginosa [6]
  MIC: 64 µg/mL (≈ 143 µM)
Staphylococcus aureus [7]
  MIC: 64 µg/mL (≈ 143 µM)
Escherichia coli [8]
  MIC: 256 µg/mL (≈ 571 µM)
Enterococcus faecalis
  MIC: 128 µg/mL (≈ 286 µM)

## CC(=O)Nc1ccc(S(=O)(=O)/C(C#N)=C/c2cn(Cc3ccc(F)cc3F)c3ccccc23)cc1
Staphylococcus aureus [1]
  MIC: 8 µg/mL (≈ 16.3 µM)
Staphylococcus aureus [2]
  MIC: 64 µg/mL (≈ 130 µM)
Pseudomonas aeruginosa [3]
  MIC: 64 µg/mL (≈ 130 µM)
Klebsiella pneumoniae
  MIC: 256 µg/mL (≈ 521 µM)
Escherichia coli [4]
  MIC: 32 µg/mL (≈ 65.1 µM)
Acinetobacter baumannii
  MIC: 16 µg/mL (≈ 32.6 µM)
Staphylococcus aureus [5]
  MIC: 32 µg/mL (≈ 65.1 µM)
Pseudomonas aeruginosa [6]
  MIC: 64 µg/mL (≈ 130 µM)
Staphylococcus aureus [7]
  MIC: 32 µg/mL (≈ 65.1 µM)
Escherichia coli [8]
  MIC: 128 µg/mL (≈ 260 µM)
Enterococcus faecalis
  MIC: 256 µg/mL (≈ 521 µM)

## CC(=O)Nc1ccc(S(=O)(=O)/C(C#N)=C/c2cn(CCN(C)C)c3ccccc23)cc1
Staphylococcus aureus [1]
  MIC: 128 µg/mL (≈ 293 µM)
Staphylococcus aureus [2]
  MIC: 128 µg/mL (≈ 293 µM)
Pseudomonas aeruginosa [3]
  MIC: 64 µg/mL (≈ 147 µM)
Klebsiella pneumoniae
  MIC: 8 µg/mL (≈ 18.3 µM)
Escherichia coli [4]
  MIC: 64 µg/mL (≈ 147 µM)
Acinetobacter baumannii
  MIC: 32 µg/mL (≈ 73.3 µM)
Staphylococcus aureus [5]
  MIC: 2 µg/mL (≈ 4.58 µM)
Pseudomonas aeruginosa [6]
  MIC: 16 µg/mL (≈ 36.7 µM)
Staphylococcus aureus [7]
  MIC: 16 µg/mL (≈ 36.7 µM)
Escherichia coli [8]
  MIC: 128 µg/mL (≈ 293 µM)
Enterococcus faecalis
  MIC: 256 µg/mL (≈ 586 µM)

## C=CCn1cc(/C=C(\C#N)S(=O)(=O)c2ccc(NC(C)=O)cc2)c2ccccc21
Staphylococcus aureus [1]
  MIC: 256 µg/mL (≈ 631 µM)
Staphylococcus aureus [2]
  MIC: 8 µg/mL (≈ 19.7 µM)
Pseudomonas aeruginosa [3]
  MIC: 8 µg/mL (≈ 19.7 µM)
Klebsiella pneumoniae
  MIC: 8 µg/mL (≈ 19.7 µM)
Escherichia coli [4]
  MIC: 1 µg/mL (≈ 2.47 µM)
Acinetobacter baumannii
  MIC: 2 µg/mL (≈ 4.93 µM)
Staphylococcus aureus [5]
  MIC: 256 µg/mL (≈ 631 µM)
Pseudomonas aeruginosa [6]
  MIC: 16 µg/mL (≈ 39.5 µM)
Staphylococcus aureus [7]
  MIC: 4 µg/mL (≈ 9.86 µM)
Escherichia coli [8]
  MIC: 8 µg/mL (≈ 19.7 µM)
Enterococcus faecalis
  MIC: 8 µg/mL (≈ 19.7 µM)

## CCn1cc(/C=C(\C#N)S(=O)(=O)c2ccc(N)cc2)c2ccccc21
Staphylococcus aureus [1]
  MIC: 1 µg/mL (≈ 2.85 µM)
Staphylococcus aureus [2]
  MIC: 16 µg/mL (≈ 45.5 µM)
Pseudomonas aeruginosa [3]
  MIC: 1 µg/mL (≈ 2.85 µM)
Klebsiella pneumoniae
  MIC: 8 µg/mL (≈ 22.8 µM)
Escherichia coli [4]
  MIC: 8 µg/mL (≈ 22.8 µM)
Acinetobacter baumannii
  MIC: 1 µg/mL (≈ 2.85 µM)
Staphylococcus aureus [5]
  MIC: 1 µg/mL (≈ 2.85 µM)
Pseudomonas aeruginosa [6]
  MIC: 8 µg/mL (≈ 22.8 µM)
Staphylococcus aureus [7]
  MIC: 64 µg/mL (≈ 182 µM)
Escherichia coli [8]
  MIC: 8 µg/mL (≈ 22.8 µM)
Enterococcus faecalis
  MIC: 8 µg/mL (≈ 22.8 µM)

Source: ChEMBL document CHEMBL5625248, “Identification of unique indolylcyanoethylenyl sulfonylanilines as novel structural scaffolds of potential antibacterial agents” (Eur J Med Chem, 2023)
